Results published in PubChem BioAssay AID330 (DTP/NCI, 2004).
Several values for one entry are separate records, joined by “and”; a condition that tells them apart may be missing. Identical values can stand only once. Toxic doses and inconclusive results are not listed. Rule for the calls: active = survival T/C of 150% or more; inactive = T/C below 125% in these data.

Test system: P388 leukemia ip, CD2F1 mice, survival T/C
Test: NCI In Vivo Anticancer Drug Screen. Data for tumor model P388 Leukemia (intraperitoneal) in CD2F1 (CDF1) mice
Conditions: endpoint: median survival time, higher = longer survival
Summary of the method: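 Mice carrying the transplanted tumor received test compound or vehicle. Survival was recorded in each group, and the value is the treated-group measurement divided by that of the vehicle-treated control group.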

[1] = dose: 12.5 mg/kg/injection, schedule: Q01DX009 (ip), vehicle: water
[2] = dose: 25.0 mg/kg/injection, schedule: Q01DX009 (ip), vehicle: water
[3] = dose: 50.0 mg/kg/injection, schedule: Q01DX009 (ip), vehicle: water

Measured: T/C

Cc1ccn(C(=O)C2=Cc3ccccc3OC2)c(=N)c1
inactive: dose: 100.0 mg/kg/injection, schedule: Q04DX003 (ip), vehicle: Klucel (hydroxypropylcellulose) (HPC) 106 % of control | dose: 200.0 mg/kg/injection, schedule: Q04DX003 (ip), vehicle: Klucel (hydroxypropylcellulose) (HPC) 103 % of control | dose: 400.0 mg/kg/injection, schedule: Q04DX003 (ip), vehicle: Klucel (hydroxypropylcellulose) (HPC) 100 % of control

Nc1cccc(S(=O)(=O)N/N=C/C(=O)O)c1
inactive: [1] 111 % of control | [2] 116 % of control | [3] 119 % of control | dose: 100.0 mg/kg/injection, schedule: Q01DX009 (ip), vehicle: water 117 % of control

OC1CCC(C2C3CCCCC3C3CCCCC3C2C2CCC(O)CC2)CC1 (stereo not drawn)
inactive: dose: 50.0 mg/kg/injection, schedule: Q01DX005 (ip), vehicle: saline with Tween-80 99 % of control | dose: 100.0 mg/kg/injection, schedule: Q01DX005 (ip), vehicle: saline with Tween-80 99 % of control

NC(=O)c1ccc(=O)n(C2OC(CO)C(O)C2O)c1 (stereo not drawn)
inactive: dose: 50.0 mg/kg/injection, schedule: Q04DX003 (ip), vehicle: saline with Tween-80 102 % of control | dose: 100.0 mg/kg/injection, schedule: Q04DX003 (ip), vehicle: saline with Tween-80 102 % of control | dose: 200.0 mg/kg/injection, schedule: Q04DX003 (ip), vehicle: saline with Tween-80 100 % of control | dose: 400.0 mg/kg/injection, schedule: Q04DX003 (ip), vehicle: saline with Tween-80 102 % of control

COc1cc(OC)cc(C2OC3=C(Nc4ccccc4N3)C2=O)c1 (stereo not drawn)
inactive: dose: 60.0 mg/kg/injection, schedule: Q01DX005 (ip), vehicle: Klucel (hydroxypropylcellulose) (HPC) 93 % of control | dose: 120.0 mg/kg/injection, schedule: Q01DX005 (ip), vehicle: Klucel (hydroxypropylcellulose) (HPC) 89 % of control

O=S(=O)(O)C(Nc1cccc(Cl)c1)c1ccccc1 (stereo not drawn)
inactive: dose: 50.0 mg/kg/injection, schedule: Q01DX009 (ip), vehicle: saline with Tween-80 97 % of control | dose: 100.0 mg/kg/injection, schedule: Q01DX009 (ip), vehicle: saline with Tween-80 95 % of control | dose: 200.0 mg/kg/injection, schedule: Q01DX009 (ip), vehicle: saline with Tween-80 103 % of control

O=C(Nc1cc(-c2ccccc2)nn1-c1ccccc1)c1ccc(Cl)cc1
inactive: dose: 60.0 mg/kg/injection, schedule: Q01DX005 (ip), vehicle: saline with Tween-80 99 % of control and 94 % of control | dose: 120.0 mg/kg/injection, schedule: Q01DX005 (ip), vehicle: saline with Tween-80 93 % of control | dose: 240.0 mg/kg/injection, schedule: Q01DX005 (ip), vehicle: saline with Tween-80 87 % of control and 94 % of control

Cc1nc2c(n1C)C(=O)c1nc[nH]c(=O)c1C2=O
inactive: dose: 1.75 mg/kg/injection, schedule: Q01DX005 (ip), vehicle: water 102 % of control | dose: 3.5 mg/kg/injection, schedule: Q01DX005 (ip), vehicle: water 92 % of control | dose: 7.0 mg/kg/injection, schedule: Q01DX005 (ip), vehicle: water 96 % of control | dose: 14.0 mg/kg/injection, schedule: Q01DX005 (ip), vehicle: water 96 % of control

Nc1nnc(SCCCCCCCCCCSc2nnc(N)s2)s1
inactive: dose: 50.0 mg/kg/injection, schedule: Q01DX005 (ip), vehicle: Klucel (hydroxypropylcellulose) (HPC) 95 % of control | dose: 100.0 mg/kg/injection, schedule: Q01DX005 (ip), vehicle: Klucel (hydroxypropylcellulose) (HPC) 91 % of control | dose: 200.0 mg/kg/injection, schedule: Q01DX005 (ip), vehicle: Klucel (hydroxypropylcellulose) (HPC) 89 % of control

CCC(C)C(N)C(=O)NC(CC(N)=O)C(=O)NC(CC(C)C)C(=O)NC(CCCCN)C(=O)NC(C)C(=O)NC(CC(C)C)C(=O)NC(C)C(=O)NC(C)C(=O)NC(CC(C)C)C(=O)NC(C)C(=O)NC(CCCCN)C(=O)NC(CCCCN)C(=O)NC(C(=O)NC(CC(C)C)C(N)=O)C(C)CC (stereo not drawn)
inactive: dose: 1.56 mg/kg/injection, schedule: Q01DX005 (ip), vehicle: Klucel (hydroxypropylcellulose) (HPC) 102 % of control | dose: 3.12 mg/kg/injection, schedule: Q01DX005 (ip), vehicle: Klucel (hydroxypropylcellulose) (HPC) 100 % of control | dose: 6.25 mg/kg/injection, schedule: Q01DX005 (ip), vehicle: Klucel (hydroxypropylcellulose) (HPC) 95 % of control | dose: 12.5 mg/kg/injection, schedule: Q01DX005 (ip), vehicle: Klucel (hydroxypropylcellulose) (HPC) 94 % of control and 96 % of control

COC(=O)C1(CC(=O)c2cccc([N+](=O)[O-])c2)NC(=S)NC(=O)C1C#N (stereo not drawn)
inactive: dose: 60.0 mg/kg/injection, schedule: Q01DX005 (ip), vehicle: suspension in saline 100 % of control | dose: 120.0 mg/kg/injection, schedule: Q01DX005 (ip), vehicle: suspension in saline 90 % of control | dose: 240.0 mg/kg/injection, schedule: Q01DX005 (ip), vehicle: suspension in saline 90 % of control

Cc1cccc(Cl)c1NC(=O)CCl
inactive: dose: 12.5 mg/kg/injection, schedule: Q01DX009 (ip), vehicle: Klucel (hydroxypropylcellulose) (HPC) 101 % of control | dose: 25.0 mg/kg/injection, schedule: Q01DX009 (ip), vehicle: Klucel (hydroxypropylcellulose) (HPC) 101 % of control | dose: 50.0 mg/kg/injection, schedule: Q01DX009 (ip), vehicle: Klucel (hydroxypropylcellulose) (HPC) 93 % of control | dose: 100.0 mg/kg/injection, schedule: Q01DX009 (ip), vehicle: Klucel (hydroxypropylcellulose) (HPC) 101 % of control

COc1cc2cccc(N)c2cc1OC
inactive: dose: 6.25 mg/kg/injection, schedule: Q01DX009 (ip), vehicle: water 106 % of control | [1] 114 % of control | [2] 110 % of control | [3] 110 % of control
